Tests used:
Type in all cases: in vivo
[1] = tested on: horseweed (Erigeron canadensis); experiment: Test A postemergence application, visual injury rating 0-100; settings: Postemergence
Excerpt: (§1) Seeds of plant species selected from barnyardgrass (Echinochloa crus-galli), blackgrass (Alopecurus myosuroides), corn (Zea mays), foxtail, giant (giant foxtail, Setaria faberi), green foxtail (Setaria viridis), goosegrass (Eleusine indica), kochia (Bassia scoparia), oat, wild (wild oat, Avena fatua), palmer (palmer amaranth, palmer pigweed, Amaranthus palmeri), ragweed (common ragweed, Ambrosia artemisiifolia), ryegrass, Italian (italian ryegrass, Lolium multiflorum), soybean (Glycine max) and wheat (Triticum aestivum) were planted into a blend of loam soil and sand and treated preemergence with a directed soil spray using test chemicals formulated in a non-phytotoxic solvent mixture which included a surfactant.
(§2) At the same time, plants selected from these crops and weed species and also galium (catchweed bedstraw, Galium aparine) and horseweed (Erigeron canadensis) were planted in pots containing the same blend of loam soil and sand and treated with postemergence applications of test chemicals formulated in the same manner. Plants ranged in height from 2 to 10 cm and were in the one- to two-leaf stage for the postemergence treatment. Treated plants and untreated controls were maintained in a greenhouse for 10 days, after which time all treated plants were compared to untreated controls and visually evaluated for injury. Plant response ratings, summarized in Table A, are based on a 0 to 100 scale where 0 is no effect and 100 is complete control. A dash (-) response means no test result.

kochia (Bassia scoparia) [2] = experiment: as above; settings: Postemergence
Excerpt: as §1, §2

[3] = tested on: green foxtail (Setaria viridis); experiment: as above; settings: Postemergence, 1000 g ai/ha, 0 to 100 scale, 10 days
Excerpt: as §1, §2

[4] = tested on: galium (catchweed bedstraw, Galium aparine); experiment: as above; settings: Postemergence
Excerpt: as §1, §2

[5] = tested on: blackgrass (Alopecurus myosuroides); experiment: as above; settings: Postemergence
Excerpt: as §1, §2

[6] = tested on: barnyardgrass (Echinochloa crus-galli); experiment: as above; settings: Postemergence
Excerpt: as §1, §2

kochia (Bassia scoparia) [7] = experiment: Test A preemergence soil spray, visual injury rating 0-100; settings: 10 days, 0 = no effect, 100 = complete control
Excerpt: as §1, §2

[8] = tested on: green foxtail (Setaria viridis); experiment: as above; settings: 1000 g ai/ha, 10 days, 0 = no effect, 100 = complete control
Excerpt: as §1, §2

[9] = tested on: palmer (palmer amaranth, palmer pigweed, Amaranthus palmeri); experiment: as above; settings: 10 days, 0 = no effect, 100 = complete control
Excerpt: as §1, §2

[10] = tested on: ryegrass, Italian (italian ryegrass, Lolium multiflorum); experiment: as above; settings: 10 days, 0 = no effect, 100 = complete control
Excerpt: as §1, §2

[11] = tested on: barnyardgrass (Echinochloa crus-galli); experiment: as above; settings: 10 days, 0 = no effect, 100 = complete control
Excerpt: as §1, §2

corn (Zea mays) [12] = experiment: Test A postemergence application, visual injury rating 0-100; settings: Postemergence
Excerpt: as §1, §2

[13] = tested on: oat, wild (wild oat, Avena fatua); experiment: as above; settings: Postemergence
Excerpt: as §1, §2

[14] = tested on: palmer (palmer amaranth, palmer pigweed, Amaranthus palmeri); experiment: as above; settings: Postemergence
Excerpt: as §1, §2

[15] = tested on: ryegrass, Italian (italian ryegrass, Lolium multiflorum); experiment: as above; settings: Postemergence
Excerpt: as §1, §2

[16] = tested on: wheat (Triticum aestivum); experiment: as above; settings: Postemergence
Excerpt: as §1, §2

soybean (Glycine max) [17] = experiment: as above; settings: Postemergence
Excerpt: as §1, §2

[18] = tested on: ragweed (common ragweed, Ambrosia artemisiifolia); experiment: as above; settings: Postemergence
Excerpt: as §1, §2

corn (Zea mays) [19] = experiment: Test A preemergence soil spray, visual injury rating 0-100; settings: 10 days, 0 = no effect, 100 = complete control
Excerpt: as §1, §2

[20] = tested on: oat, wild (wild oat, Avena fatua); experiment: as above; settings: 10 days, 0 = no effect, 100 = complete control
Excerpt: as §1, §2

[21] = tested on: wheat (Triticum aestivum); experiment: as above; settings: 10 days, 0 = no effect, 100 = complete control
Excerpt: as §1, §2

soybean (Glycine max) [22] = experiment: as above; settings: 10 days, 0 = no effect, 100 = complete control
Excerpt: as §1, §2

[23] = tested on: blackgrass (Alopecurus myosuroides); experiment: as above; settings: 10 days, 0 = no effect, 100 = complete control
Excerpt: as §1, §2

[24] = tested on: ragweed (common ragweed, Ambrosia artemisiifolia); experiment: as above; settings: 10 days, 0 = no effect, 100 = complete control
Excerpt: as §1, §2

[25] = 1000 g ai/ha, 0 to 100 scale, 10 days
[26] = 31 g ai/ha, greenhouse 10 days, 0 no effect, 100 complete control
[27] = 125 g ai/ha, 10 days, 0 is no effect, 100 is complete control

With `COC(=O)C1C=CC(NC(=O)C2(C)CN(c3cc(F)cc(F)c3)C(=O)N2)C1` (stereo not shown) [Compound 180] the “Horseweed plant response rating” value [1, 25] was 90, the “Kochia plant response rating” value (kochia (Bassia scoparia) [2]; [25]) was 80 and the “Foxtail, Green plant response rating” value [3] was 90. The “Galium plant response rating” value [4, 25] was 90, the “Blackgrass plant response rating” value [5, 25] was 90 and the “Barnyardgrass plant response rating” value [6, 25] was 100. For the same compound, the “Kochia plant response rating (0 to 100 scale)” value (kochia (Bassia scoparia) [7]; 1000 g ai/ha) was 100, the “Foxtail, Green plant response rating (0 to 100 scale)” value [8] was 100 and the “Amaranth, Palmer / Pigweed, Palmer plant response rating (0 to 100 scale)” value (“Amaranth, Palmer / Pigweed” for short) ([9]; 1000 g ai/ha) was 100. For the same compound, the “Ryegrass, Italian plant response rating (0 to 100 scale)” value (“Ryegrass … (0 to 100 scale)” for short) ([10]; 1000 g ai/ha) was 100 and the “Barnyardgrass plant response rating (0 to 100 scale)” value ([11]; 1000 g ai/ha) was 100.
For `CCCS(=O)(=O)OC(=O)C1C=CC(NC(=O)C2(C)CN(c3cc(Cl)cc(Cl)c3)C(=O)O2)C1` (mixture of isomers) [Compound 79], the “Corn plant response rating (0 to 100 scale)” value (corn (Zea mays) [12]; [26]) was 90, the “Corn plant response rating (0 to 100 scale)” value (corn (Zea mays) [12]; [27]) was 100 and the “Oat, Wild plant response rating (0 to 100 scale)” value (“Oat … (0 to 100 scale)” below) [13, 26] was 90. The “Oat … (0 to 100 scale)” value [13, 27] was 90, the “Horseweed plant response rating (0 to 100 scale)” value [1, 26] was 40 and the “Horseweed plant response rating (0 to 100 scale)” value [1, 27] was 70. For the same compound, the “Kochia plant response rating (0 to 100 scale)” value (kochia (Bassia scoparia) [2]; [26]) was 70, the “Kochia plant response rating (0 to 100 scale)” value (kochia (Bassia scoparia) [2]; [27]) was 80 and the “Amaranth, Palmer / Pigweed” value [14, 26] was 70. For the same compound, the “Amaranth, Palmer / Pigweed” value [14, 27] was 90, the “Galium plant response rating (0 to 100 scale)” value [4, 26] was 80 and the “Galium plant response rating (0 to 100 scale)” value [4, 27] was 80. For the same compound, the “Ryegrass … (0 to 100 scale)” value [15, 26] was 50, the “Ryegrass … (0 to 100 scale)” value [15, 27] was 60 and the “Wheat plant response rating (0 to 100 scale)” value [16, 26] was 80. For the same compound, the “Wheat plant response rating (0 to 100 scale)” value [16, 27] was 90, the “Soybean plant response rating (0 to 100 scale)” value (soybean (Glycine max) [17]; [26]) was 40 and the “Soybean plant response rating (0 to 100 scale)” value (soybean (Glycine max) [17]; [27]) was 90. For the same compound, the “Blackgrass plant response rating (0 to 100 scale)” value [5, 26] was 60, the “Blackgrass plant response rating (0 to 100 scale)” value [5, 27] was 90 and the “Ragweed plant response rating (0 to 100 scale)” value [18, 26] was 50. The “Ragweed plant response rating (0 to 100 scale)” value [18, 27] was 60, the “Barnyardgrass plant response rating (0 to 100 scale)” value [6, 26] was 90 and the “Barnyardgrass plant response rating (0 to 100 scale)” value [6, 27] was 90. The “Corn plant response rating (0-100)” value (corn (Zea mays) [19]; 31 g ai/ha) was 0, the “Corn plant response rating (0 to 100 scale)” value (corn (Zea mays) [19]; 125 g ai/ha) was 30 and the “Oat, Wild plant response rating (0-100)” value ([20]; 31 g ai/ha) was 20. For the same compound, the “Oat … (0 to 100 scale)” value ([20]; 125 g ai/ha) was 30, the “Kochia plant response rating (0-100)” value (kochia (Bassia scoparia) [7]; 31 g ai/ha) was 30 and the “Kochia plant response rating (0 to 100 scale)” value (kochia (Bassia scoparia) [7]; 125 g ai/ha) was 70. For the same compound, the “Amaranth, Palmer plant response rating (0-100)” value ([9]; 31 g ai/ha) was 80, the “Amaranth, Palmer plant response rating (0 to 100 scale)” value ([9]; 125 g ai/ha) was 90 and the “Ryegrass, Italian plant response rating (0-100)” value ([10]; 31 g ai/ha) was 20. For the same compound, the “Ryegrass … (0 to 100 scale)” value ([10]; 125 g ai/ha) was 80, the “Wheat plant response rating (0-100)” value ([21]; 31 g ai/ha) was 10 and the “Wheat plant response rating (0 to 100 scale)” value ([21]; 125 g ai/ha) was 80. For the same compound, the “Soybean plant response rating (0-100)” value (soybean (Glycine max) [22]; 31 g ai/ha) was 0, the “Soybean plant response rating (0 to 100 scale)” value (soybean (Glycine max) [22]; 125 g ai/ha) was 70 and the “Blackgrass plant response rating (0-100)” value ([23]; 31 g ai/ha) was 10. For the same compound, the “Blackgrass plant response rating (0 to 100 scale)” value ([23]; 125 g ai/ha) was 30, the “Ragweed plant response rating (0-100)” value ([24]; 31 g ai/ha) was 0 and the “Ragweed plant response rating (0 to 100 scale)” value ([24]; 125 g ai/ha) was 20. For the same compound, the “Barnyardgrass plant response rating (0-100)” value ([11]; 31 g ai/ha) was 30 and the “Barnyardgrass plant response rating (0 to 100 scale)” value ([11]; 125 g ai/ha) was 90.
